{"source": "ChEMBL document CHEMBL4422686", "about": "“Optimization of an azetidine series as inhibitors of colony stimulating factor-1 receptor (CSF-1R) Type II to lead to the clinical candidate JTE-952” (Bioorg Med Chem Lett, 2019)", "conditions_in_all_cases": "in vivo", "key": {"[1]": {"assay": "Oral bioavailability in Sprague-Dawley rat at 3 mg/kg by LC-MS/MS analysis", "assay_type": "ADME, organism-based"}, "[2]": {"assay": "Volume of distribution in cynomolgus monkey at 1 mg/kg, iv by LC-MS/MS analysis", "assay_type": "ADME, organism-based, Macaca fascicularis"}, "[3]": {"assay": "Cmax in Sprague-Dawley rat at 3 mg/kg, po by LC-MS/MS analysis", "assay_type": "ADME, organism-based", "parameters": "dose 3 mg/kg, route oral"}, "[4]": {"assay": "Mean residence time in cynomolgus monkey at 1 mg/kg, iv by LC-MS/MS analysis", "assay_type": "ADME, organism-based, Macaca fascicularis"}, "[5]": {"assay": "AUC in Sprague-Dawley rat at 3 mg/kg, po by LC-MS/MS analysis", "assay_type": "ADME, organism-based"}, "[6]": {"assay": "Volume of distribution in Sprague-Dawley rat at 1 mg/kg, iv by LC-MS/MS analysis", "assay_type": "ADME, organism-based"}, "[7]": {"assay": "Mean residence time in Sprague-Dawley rat at 1 mg/kg, iv by LC-MS/MS analysis", "assay_type": "ADME, organism-based"}}}
{"compound": "COc1cc(C2CN(C(=O)c3cc(OC[C@H](O)CO)ccn3)C2)ccc1OCc1ccc(C2CC2)cc1", "values": [{"measurement": "bioavailability", "setting": "[1]", "value": 75.8, "unit": "%"}, {"measurement": "Vd", "setting": "[2]", "value": 0.76, "unit": "L/kg"}, {"measurement": "Cmax", "setting": "[3]", "value": 740, "unit": "nM"}, {"measurement": "MRT", "setting": "[4]", "value": 0.28, "unit": "h"}, {"measurement": "AUC", "setting": "[5]", "value": 4.15, "unit": "µM·h"}, {"measurement": "Vd", "setting": "[6]", "value": 1.51, "unit": "L/kg"}, {"measurement": "MRT", "setting": "[7]", "value": 1.37, "unit": "h"}]}
{"compound": "COc1cc(C2CN(C(=O)c3cc(COCC(CO)(CO)CO)ccn3)C2)ccc1OCc1ccc(C2CC2)cc1", "values": [{"measurement": "bioavailability", "setting": "[1]", "value": 116, "unit": "%"}, {"measurement": "Vd", "setting": "[2]", "value": 0.56, "unit": "L/kg"}, {"measurement": "Cmax", "setting": "[3]", "value": 270, "unit": "nM"}, {"measurement": "MRT", "setting": "[4]", "value": 1.2, "unit": "h"}, {"measurement": "AUC", "setting": "[5]", "value": 1.63, "unit": "µM·h"}, {"measurement": "Vd", "setting": "[6]", "value": 3.46, "unit": "L/kg"}, {"measurement": "MRT", "setting": "[7]", "value": 0.91, "unit": "h"}]}
{"compound": "COc1cc(C2CN(C(=O)c3cc(COC[C@@H](O)CO)ccn3)C2)ccc1OCc1ccc(C2CC2)cc1", "values": [{"measurement": "bioavailability", "setting": "[1]", "value": 85.1, "unit": "%"}, {"measurement": "Vd", "setting": "[2]", "value": 5, "unit": "L/kg"}, {"measurement": "Cmax", "setting": "[3]", "value": 490, "unit": "nM"}, {"measurement": "MRT", "setting": "[4]", "value": 7.5, "unit": "h"}, {"measurement": "AUC", "setting": "[5]", "value": 2.22, "unit": "µM·h"}, {"measurement": "Vd", "setting": "[6]", "value": 3.27, "unit": "L/kg"}, {"measurement": "MRT", "setting": "[7]", "value": 1.46, "unit": "h"}]}
